Assay results reported in patent publication US9446127B2, “Compositions including androgen receptor degradation (ARD) enhancers and methods of prophylactic or therapeutic treatment of skin disorders and hair loss” (AndroScience Corporation, priority 2007, dated 2016).

Columns and labels:
[1] = tested on: ER beta, PPARα, β or γ, RXRα, hsp70, actin; test: Specificity Western blot in LNCaP cell lysates, other nuclear receptors or proteins; format: cell-based, human; details: 1 or 5 micromolar, 24 hours, presence or absence of DHT
Protocol: Human prostate cancer LNCaP cells and T47D cells were plated at a density of 7×10^5 cells per 60 millimeter tissue culture dish in […] medium containing 10% FBS. The medium was changed to RPMI or DME medium containing 10% charcoal-stripped serum 24 hours later to deplete cellular androgens or estrogens. After another 24 hours, treatment with the test compounds began. The test dose of ASC-J9 was 1, and 5 and micromolar. LNCap cells also received dihydrotestosterone (DHT) (3 nanomolar). Control cells received a corresponding amount of the vehicle, dimethylsulfoxide (DMSO) (<0.04%) for an equivalent exposure time. Cells were incubated with ASC-J9 for 24 hours, and were lysed in 250 microliters of 1×SDS/PAGE loading buffer. Approximately 40 micrograms of total cellular protein was loaded in each lane of a pre-cast gel (NuPAGE, Invitrogen). Protein separation and transfer were performed following the manufacturer's instructions.
For the LNCaP cell lysates, androgen receptor (AR) protein was visualized by incubating the resultant membranes with an anti-AR antibody (BD-PharMingen), followed by chemiluminescence detection (ECL Plus, Amersham). […] The resultant protein signals were quantified using densitometry and NIH ImageJ software.

[2] = target: T1, wild type androgen receptor (GFPAR) (Homo sapiens, UniProt P10275); test: Fluorescence microscopy of COS-1 cells transfected with GFPAR; format: cell-based; details: COS-1, 5 micromolar
T1 construct: GFP (green fluorescent protein); expressed in transfected cells; host or cells: COS-1 (monkey kidney)
T1 sequence (P10275 1-920): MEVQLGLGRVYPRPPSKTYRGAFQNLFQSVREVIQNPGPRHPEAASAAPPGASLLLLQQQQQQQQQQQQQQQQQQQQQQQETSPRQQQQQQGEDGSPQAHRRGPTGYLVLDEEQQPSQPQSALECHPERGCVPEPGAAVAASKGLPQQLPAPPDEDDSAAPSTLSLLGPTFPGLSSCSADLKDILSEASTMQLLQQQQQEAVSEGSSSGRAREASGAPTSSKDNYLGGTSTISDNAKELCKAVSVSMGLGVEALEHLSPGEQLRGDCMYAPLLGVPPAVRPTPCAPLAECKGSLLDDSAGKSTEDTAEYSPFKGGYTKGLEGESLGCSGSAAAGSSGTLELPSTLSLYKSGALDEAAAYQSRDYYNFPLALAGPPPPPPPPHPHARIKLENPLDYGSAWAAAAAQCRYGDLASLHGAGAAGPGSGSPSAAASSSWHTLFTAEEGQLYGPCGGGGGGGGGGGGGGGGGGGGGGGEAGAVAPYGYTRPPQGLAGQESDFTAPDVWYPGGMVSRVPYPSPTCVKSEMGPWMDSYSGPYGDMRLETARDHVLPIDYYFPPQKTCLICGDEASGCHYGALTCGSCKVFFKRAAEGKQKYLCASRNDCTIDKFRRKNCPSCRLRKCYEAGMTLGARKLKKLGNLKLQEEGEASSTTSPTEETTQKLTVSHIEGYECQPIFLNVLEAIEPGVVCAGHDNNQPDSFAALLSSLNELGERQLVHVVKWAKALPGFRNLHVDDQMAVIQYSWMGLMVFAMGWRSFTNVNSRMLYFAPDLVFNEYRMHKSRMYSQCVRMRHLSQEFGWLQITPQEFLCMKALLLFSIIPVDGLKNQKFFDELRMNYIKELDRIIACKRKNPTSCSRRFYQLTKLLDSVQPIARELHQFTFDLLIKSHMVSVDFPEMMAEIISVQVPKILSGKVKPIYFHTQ
Protocol: Monkey kidney COS-1 cells were plated at a density of 3×10^4 cells per 0.5-milliliter volume onto alcohol-cleaned and sterilized cover slips placed in 35-millimeter suspension culture dishes containing Dulbecco's modified Eagle's (DME) medium containing 10% FBS. The cells were transfected with plasmids containing the wild type AR (GFPAR) or poly Q49 (plasmid GFPARQ49) mutant androgen receptor and green fluorescent protein (GFP) as a reporter. For each coverslip, 12.3 microliters SuperFect was added to 3.075 micrograms plasmid in 102.5 microliters DME medium (to give a 1:4 ratio of DNA to SuperFect reagent); the mixture was vortexed briefly, and the complex allowed to form over 15 minutes. Each mixture then received 897 microliters CD/DME and was mixed gently. The resulting 1-milliliter volumes were added to the dishes containing the coverslips (final plasmid concentration was […] per dish). Cells were allowed to incubate with the transfection solution for 5 hours, then the medium was changed to fresh 1.5 milliliters CD/DME medium with either vehicle (DMSO) only added or ASC-J9 (final concentration 5 micromolar). […] The coverslips were air-dried, mounted on slides with a glycerol-based mounting agent, and stored at 4 degrees Celsius if necessary prior to observation with fluorescence microscopy. […]

skin wounds = test: Skin wound healing in Balb/c mice; format: in vivo; details: cream 25 uM twice per day
Protocol: The ability of ASC-J9 to hasten wound healing in an animal model was tested using Balb/c mice. Using a skin puncher, wounds were created near the back of the neck region on retired male breeder Balb/c mice. Mice were treated with either an ASC-J9 cream (25 uM) or a vehicle control cream twice per day topically at the wound site.

Which results are given for `COc1ccc(C=CC(=O)C=C(O)C=Cc2ccc(OC)c(OC)c2)cc1OC` [ASC-J9, 5-hydroxy-1,7-bis(3,4-dimethoxyphenyl)-1,4,6-heptatrien-3-one]?
other tested nuclear receptors or proteins [1]: did not substantially affect; GFPAR fluorescence (expression of wild type AR) [2]: reduces (or degrades) the expression of AR; wound size (skin wounds; day 5, vs vehicle): smaller wound size; wound healing (skin wounds; day 10): completely healed
